Assay results published in PMC12679848, “Sulphonamide derivatives with a triazine core as novel inducers of apoptosis and pyroptosis in glioblastoma multiforme cells” (Journal of Enzyme Inhibition and Medicinal Chemistry, 2025).

Assays:
[1] = test system: U-87 MG; test: Reactive oxygen species, H2DCFDA/DAPI staining, U-87 MG; type: cell-based, human; conditions: 30 min of compound treatment
Protocol: (§1) We performed double staining with DAPI, which stains nuclear genetic material (blue fluorescence), and H2DCFDA, an indicator of oxidative stress (green fluorescence). This study allowed us to evaluate the ability of MM118 and MM119 to activate reactive oxygen species (ROS) in A172 and U-87 MG glial cells.
(§2) The impact of the tested compounds on reactive oxygen species (ROS) production was assessed. Cells were seeded in 6-well culture plates at a density of 1 × 10^5 cells per well in 1 ml of medium. Following a 30-min treatment with the compounds, cells were washed with phosphate-buffered saline (PBS). Subsequently, double staining was performed using 20 µM 2′,7′-dichlorodihydrofluorescein diacetate (H2DCFDA) (obtained from Thermo Fisher Scientific, Eugene, OR, USA). This colourless reagent is hydrolysed by intracellular esterases and subsequently oxidised to the 2′,7′-dichlorofluorescein (DCF), and 10 µg/mL of 4′,6-diamidino-2-phenylindole (DAPI) (Sigma-Aldrich, St. Louis, MO, USA) was used to stain nuclear DNA. Fluorescence was observed using a Nikon ECLIPSE Ti fluorescence microscope (Nikon, Tokyo, Japan). ImageJ software (Bethesda, MD, USA) was used for data analysis, with DCF fluorescence intensity measured relative to the control. A minimum of 100 cells per sample were analysed.

[2] = test system: A172 xenografts; test: Zebrafish xenograft, A172; type: in vivo; conditions: 10 µM, 48 h, 0.1% DMSO control 4%
Protocol: (§3) In our study, we used wild-type AB zebrafish embryos obtained from the certified Experimental Medicine Centre (Lublin, Poland). Adult zebrafish were raised at 28.5 °C under 14 h of light and 10 h of the dark cycle and fed in accordance with the guidelines established by the Research Animals Department of the RSPCA. Fertilised eggs were obtained by natural spawning; healthy clutches were processed for study or propagated for line maintenance. Embryos were maintained in the E3 medium (5 mM NaCl, 0.33 mM MgCl2, 0.33 mM CaCl2, 0.17 mM KCl; pH 7.2) at 28.5 °C. The use of animals in scientific research in Europe is governed by the Directive 2010/63/EU of 22 September 2010. […] All procedures in this study were performed on embryos up to 5 dpf.
(§4) A172 and U-87MG cell lines were labelled with Vybrant Did (Invitrogen, Waltham, MA, USA) according to the manufacturer’s protocol. Stained cells were re-suspended in Dulbecco’s modified Eagle’s medium (DMEM) at the final concentration of 1 × 10^7 cells/mL. 24 h post-fertilisation (hpf) zebrafish were manually dechorionated. […]
(§5) Xenograft imaging has been performed before (48 hpf) and after (120 hpf) drugs treatment using an EVOS M5000 Imaging System with the filter Cy5 (excitation: 628 nm; emission: 692 nm). […] Tumour sizes were analysed as the area of labelled tumour cells according Ali et al.[18] using EVOS software.

[3] = test system: U-87MG xenografts; test: Zebrafish xenograft, U-87 MG; type: in vivo; conditions: U-87 MG zebrafish xenografts, 10 µM, 48 h; 0.1% DMSO control 22%
Protocol: as §3, §4, §5

[4] = test system: A172; test: Reactive oxygen species, H2DCFDA/DAPI staining, A172; type: cell-based, human; conditions: A172, 30 min of compound treatment
Protocol: as §1, §2

## CCC(CO)NS(=O)(=O)c1ccc(-n2nc(C)c3nc4nnnn4nc32)cc1 (stereo in doubt) [MM118, N-(R)-(1-hydroxy-but-2-yl)-4-[7-methyl-5H-pyrazolo[4,3-e]tetrazolo[1,5-b][1]^,[2]^,[4]triazin-5-yl)]benzenesulfonamide]
[1]
  ROS, mean green (DCF) fluorescence: effectively induce oxidative stress
[2]
  average tumour size reduction: 55%
[3]
  tumour size reduction: 51%
[4]
  ROS, mean green (DCF) fluorescence: increase in mean green fluorescence

## CCC(CO)NS(=O)(=O)c1ccc(-n2nc(C)c3nc4nnnn4nc32)cc1 (stereo in doubt) [MM119, N-(S)-(1-hydroxy-but-2-yl)-4-[7-methyl-5H-pyrazolo[4,3-e]tetrazolo[1,5-b][1]^,[2]^,[4]triazin-5-yl)]benzenesulfonamide]
[1]
  ROS, mean green (DCF) fluorescence: effectively induce oxidative stress
[2]
  average tumour size reduction: 56%
[3]
  tumour size reduction: 56%
[4]
  ROS, mean green (DCF) fluorescence: increase in mean green fluorescence
